# Assay results from publication PMC6270562, “Design, Synthesis and Trypanocidal Evaluation of Novel 1,2,4-Triazoles-3-thiones Derived from Natural Piperine” (Molecules, 2013).
# Tests used:
# amastigotes of T. cruzi = test: Anti-amastigote effect in infected peritoneal macrophages; format: cell-based; settings: Trypanosoma cruzi, Peritoneal macrophage, in Mus musculus; T. cruzi Y strain, intracellular amastigotes in BALB/c peritoneal Mø, 0.5-5.0 µg mL−1; ≥ = maximum concentration allowed by trypan blue exclusion assay
# Procedure: (§1) Trypanosoma cruzi (Y strain) was obtained from the Fundação Oswaldo Cruz (Rio de Janeiro, Brazil) culture collection, and maintained in the Laboratory of Glycobiology (UFRJ, Rio de Janeiro, Brazil) facilities. Epimastigote forms were maintained by weekly transfers at 28 °C in brain-heart-infusion (BHI) medium (Acumedia, Lansing, MI, USA), supplemented with 10 mg of hemin (Sigma, St. Louis, MO, USA), 20 mg of folic acid L^−1 (Sigma) and 10% heat-inactivated fetal calf serum (FCS) (BHI-FCS medium, Gibco, Grand Island, NY, USA). Tissue culture-derived trypomastigotes were obtained after infection of confluent monolayers of Vero cells (kidney epithelial cells extracted from African green monkeys) with blood trypomastigotes (Y strain) to establish the intracellular cycle and maintained in RPMI 1640 medium containing 10% FCS under an atmosphere of 5% CO2 at 37 °C. The tissue culture-derived trypomastigotes were used to infect Mø in vitro to evaluate the toxic effects of the drugs.
# Resident peritoneal Mø from non-infected BALB/c mice were harvested and cultured as described above. Adhered Mø were infected with T. cruzi trypomastigotes at a 10:1 parasite/macrophage ratio and incubated at 37 °C under 5% CO2 for 1 h. […] After, monolayers were washed with PBS at 37 °C, fixed in methanol, and stained with Giemsa (Sigma). The amastigote survival was determined by the counting of 200 cells in triplicate, the percentage of infected cells was analyzed, as well as the number of amastigotes per macrophage and the endocytic index of the infected cells.
# (§2) The 50% inhibitory concentrations (IC50) values shown in the Table 1 represent the mean of experiments carried out in triplicate. The IC50 of all compounds were determined by linear regression analysis using the program IGOR Pro 2.03 (WaveMetrics, Inc, Lake Oswego, OR, USA).
# [1] = system: epimastigote form of Y strain T. cruzi; test: Anti-epimastigote effect (direct count of live epimastigotes after 7 days); format: cell-based, Trypanosoma cruzi; settings: mean of triplicate
# Procedure: as §1
# For evaluation of the anti-epimastigote effects, parasites (1 × 10^5 cells per mL) were subcultured in the absence or presence of different concentrations (0.5 to 25 μg.mL^−1) of the drugs 9a–9m, from a 5 mg mL^−1 stock solution in DMSO (Sigma). The parasites were incubated in BHI-FCS medium with or without drugs in a final volume of 1.0 mL in 24-well plates (TPP, Trasadingen, Switzerland), and after 7 days, the toxic effects of the drugs were quantified by the direct count of the live epimastigotes in a Neubauer chamber.
# as §2
# [2] = system: peritoneal macrophages (Mø) from Balb/c mice; test: Cytotoxicity to macrophages (trypan blue dye exclusion assay); format: cell-based; settings: murine macrophages, 0.5-5 μg mL−1, 72 h
# Procedure: The evaluation of the toxic effects of the compounds was carried out as previously described. Murine peritoneal Mø were seeded (1 × 10^6 cells per well) in 24-well plates with 1 mL of RPMI medium containing 10% FCS. […] The five drugs were assayed in increasing concentrations (0.5, 1.0, 2.5, 5.0 µg mL^−1). Afterwards, the cells were washed with PBS, and RPMI was added to the culture before the addition of vital dye trypan blue in a final concentration of 0.01%. The toxic effects of the drugs were monitored by the count of 200 cells in a Neubauer chamber where plasma membrane permeability was evaluated.
SMILES,melting point,IC50 [1],IC50 (amastigotes of T. cruzi),"IC50 ([1]; Trypanosoma cruzi, 168 h)",toxicity on host cells [2]
"CC(C)n1c(/C=C/C=C/c2ccc3c(c2)OCO3)n[nH]c1=S [9c, 5-[(1E,3E)-4-(1,3-Benzodioxol-5-yl)buta-1,3-dien-1-yl]-4-isopropyl-2,4-dihydro-3H-1,2,4-triazole-3-thione]",210 to 211 °C,27 ± 6.98 µM,11.1 ± 1.26 µM,< 30 µM,
"S=c1[nH]nc(/C=C/C=C/c2ccc3c(c2)OCO3)n1C1CCCCC1 [9f, 5-[(1E,3E)-4-(1,3-Benzodioxol-5-yl)buta-1,3-dien-1-yl]-4-cyclohexyl-2,4-dihydro-3H-1,2,4-triazole-3-thione]",192 to 194 °C,18.3 ± 5.21 µM,8.87 ± 2.39 µM,< 30 µM,low toxic effects
"CCCCCCn1c(/C=C/C=C/c2ccc3c(c2)OCO3)n[nH]c1=S [9e, 5-[(1E,3E)-4-(1,3-Benzodioxol-5-yl)buta-1,3-dien-1-yl]-4-hexyl-2,4-dihydro-3H-1,2,4-triazole-3-thione]",124 to 125 °C,15.4 ± 4.47 µM,≥ 14 µM,< 30 µM,
"COc1cc(-n2c(/C=C/C=C/c3ccc4c(c3)OCO4)n[nH]c2=S)cc(OC)c1OC [9i, 5-[(1E,3E)-4-(1,3-Benzodioxol-5-yl)buta-1,3-dien-1-yl]-4-(3,4,5-trimethoxyphenyl)-2,4-dihydro-3H-1,2,4-triazole-3-thione]",242 to 243 °C,,,35.3 ± 6.26 µM,
"O=C(Cn1ccnc1[N+](=O)[O-])NCc1ccccc1 [Benznidazole, benznidazole, reference compound]",,,2.5 ± 0.21 µM,2.2 ± 0.16 µM,
"CCCCn1c(/C=C/C=C/c2ccc3c(c2)OCO3)n[nH]c1=S [9d, 5-[(1E,3E)-4-(1,3-Benzodioxol-5-yl)buta-1,3-dien-1-yl]-4-butyl-2,4-dihydro-3H-1,2,4-triazole-3-thione]",173 to 174 °C,,≥ 15.2 µM,,
"CC(C)(C)n1c(/C=C/C=C/c2ccc3c(c2)OCO3)n[nH]c1=S [9j, 5-[(1E,3E)-4-(1,3-Benzodioxol-5-yl)buta-1,3-dien-1-yl]-4-tert-butyl-2,4-dihydro-3H-1,2,4-triazole-3-thione]",183 to 184 °C,,,50.8 ± 10.6 µM,
"CSc1ccc(-n2c(/C=C/C=C/c3ccc4c(c3)OCO4)n[nH]c2=S)cc1 [9k, 5-[(1E,3E)-4-(1,3-Benzodioxol-5-yl)buta-1,3-dien-1-yl]-4-[4-(methylthio)phenyl]-2,4-dihydro-3H-1,2,4-triazole-3-thione]",209 to 211 °C,,,40.8 ± 10.5 µM,

# More lines, main results first:
melting point,IC50 [1],SMILES,IC50 (amastigotes of T. cruzi),"IC50 ([1]; Trypanosoma cruzi, 168 h)",toxicity on host cells [2]
220 to 222 °C,,"Cn1c(/C=C/C=C/c2ccc3c(c2)OCO3)n[nH]c1=S [9a, 5-[(1E,3E)-4-(1,3-Benzodioxol-5-yl)buta-1,3-dien-1-yl]-4-methyl-2,4-dihydro-3H-1,2,-triazole-3-thione]",,44.2 ± 7.3 µM,
244 to 245 °C,,"S=c1[nH]nc(/C=C/C=C/c2ccc3c(c2)OCO3)n1-c1ccccc1 [9g, 5-[(1E,3E)-4-(1,3-Benzodioxol-5-yl)buta-1,3-dien-1-yl]-4-phenyl-2,4-dihydro-3H-1,2,4-triazole-3-thione]",,39 ± 8.88 µM,
232 to 233 °C,18.5 ± 3.95 µM,"FC(F)(F)c1ccc(-n2c(/C=C/C=C/c3ccc4c(c3)OCO4)n[nH]c2=S)cc1 [9m, 5-[(1E,3E)-4-(1,3-Benzodioxol-5-yl)buta-1,3-dien-1-yl]-4-[4-(trifluoromethyl)phenyl]-2,4-dihydro-3H-1,2,4-triazole-3-thione]",9.59 ± 2.87 µM,< 30 µM,
208 to 209 °C,,"CCn1c(/C=C/C=C/c2ccc3c(c2)OCO3)n[nH]c1=S [9b, 5-[(1E,3E)-4-(1,3-Benzodioxol-5-yl)buta-1,3-dien-1-yl]-4-ethyl-2,4-dihydro-3H-1,2,4-triazole-3-thione]",,50.2 ± 10.8 µM,
187 to 188 °C,,"S=c1[nH]nc(/C=C/C=C/c2ccc3c(c2)OCO3)n1Cc1ccccc1 [9h, 5-[(1E,3E)-4-(1,3-Benzodioxol-5-yl)buta-1,3-dien-1-yl]-4-benzyl-2,4-dihydro-3H-1,2,4-triazole-3-thione]",,39.4 ± 6.88 µM,
248 to 249 °C,,"COc1cccc(-n2c(/C=C/C=C/c3ccc4c(c3)OCO4)n[nH]c2=S)c1 [9l, 5-[(1E,3E)-4-(1,3-Benzodioxol-5-yl)buta-1,3-dien-1-yl]-4-(3-methoxyphenyl)-2,4-dihydro-3H-1,2,4-triazole-3-thione]",,48 ± 6.06 µM,
